Results: patent publication US9302999B2, “Substituted triazoles as herbicides” (E. I. DU PONT DE NEMOURS AND COMPANY, priority 2012, dated 2016)

Tests used:
Type in all cases: in vivo
[1] = system: pigweed (Amaranthus retroflexus); assay: Test A pre-/postemergence: pigweed; conditions: for Pigweed plant response rating: Postemergence; for Plant response rating, Pigweed: Preemergence
Text: (§1) Seeds of barnyardgrass (Echinochloa crus-galli), crabgrass, large (large crabgrass, Digitaria sanguinalis), foxtail, giant (giant foxtail, Setaria faberii), morningglory (Ipomoea spp.), pigweed (Amaranthus retroflexus), velvetleaf (Abutilon theophrasti), wheat (Triticum aestivum), and corn (Zea mays) were planted into a blend of loam soil and sand and treated preemergence with a directed soil spray using test chemicals formulated in a non-phytotoxic solvent mixture which included a surfactant. At the same time these species were also treated with postemergence applications of test chemicals formulated in the same manner.
(§2) Plants ranged in height from two to ten cm and were in the one- to two-leaf stage for the postemergence treatment. Treated plants and untreated controls were maintained in a greenhouse for approximately ten days, after which time all treated plants were compared to untreated controls and visually evaluated for injury. Plant response ratings, summarized in Table A, are based on a 0 to 100 scale where 0 is no effect and 100 is complete control. A dash (-) response means no test result.

[2] = system: crabgrass, large (large crabgrass, Digitaria sanguinalis); assay: Test A pre-/postemergence: crabgrass, large; conditions: for Crabgrass, Large plant response rating: Postemergence; for Plant response rating, Crabgrass, Large: Preemergence
Text: as §1, §2

[3] = system: wheat (Triticum aestivum); assay: Test A pre-/postemergence: wheat; conditions: for Wheat plant response rating: Postemergence; for Plant response rating, Wheat: Preemergence
Text: as §1, §2

[4] = system: foxtail, giant (giant foxtail, Setaria faberii); assay: Test A pre-/postemergence: foxtail, giant; conditions: for Foxtail, Giant plant response rating: Postemergence; for Plant response rating, Foxtail, Giant: Preemergence
Text: as §1, §2

[5] = system: corn (Zea mays); assay: Test A pre-/postemergence: corn; conditions: for Corn plant response rating: Postemergence; for Plant response rating, Corn: Preemergence
Text: as §1, §2

[6] = system: morningglory (Ipomoea spp.); assay: Test A pre-/postemergence: morningglory; conditions: for Morningglory plant response rating: Postemergence; for Plant response rating, Morningglory: Preemergence
Text: as §1, §2

[7] = system: velvetleaf (Abutilon theophrasti); assay: Test A pre-/postemergence: velvetleaf; conditions: for Velvetleaf plant response rating: Postemergence; for Plant response rating, Velvetleaf: Preemergence
Text: as §1, §2

[8] = system: barnyardgrass (Echinochloa crus-galli); assay: Test A pre-/postemergence: barnyardgrass; conditions: for Barnyardgrass plant response rating: Postemergence; for Plant response rating, Barnyardgrass: Preemergence
Text: as §1, §2

[9] = 125 g ai/ha, 0 to 100 scale, 0 is no effect, 100 is complete control
[10] = 500 g ai/ha, visual rating on 0 to 100 scale (0 no effect, 100 complete control), approximately ten days
[11] = 125 g ai/ha, 0 to 100 scale where 0 is no effect and 100 is complete control
[12] = 500 g ai/ha, 0 to 100 scale, 0 is no effect, 100 is complete control
[13] = 125 g ai/ha, 0 to 100 scale (0 no effect, 100 complete control)

Structure (SMILES)	Pigweed plant response rating [1, 9]	Pigweed plant response rating [1, 10]	Plant response rating, Pigweed [1, 11]	Plant response rating, Pigweed [1, 12]	Crabgrass, Large plant response rating [2, 9]	Crabgrass, Large plant response rating [2, 10]	Plant response rating, Crabgrass, Large [2, 13]	Plant response rating, Crabgrass, Large [2, 12]	Wheat plant response rating [3, 9]	Wheat plant response rating [3, 10]	Plant response rating, Wheat [3, 11]	Plant response rating, Wheat [3, 12]	Foxtail, Giant plant response rating [4, 9]	Foxtail, Giant plant response rating [4, 10]	Plant response rating, Foxtail, Giant [4, 11]	Plant response rating, Foxtail, Giant [4, 12]	Corn plant response rating [5, 9]	Corn plant response rating [5, 10]	Plant response rating, Corn [5, 13]	Plant response rating, Corn [5, 12]	other results
Cc1nn(-c2ccc(F)cc2)nc1Oc1cccc(OC(F)(F)F)c1 [Compound 100]	80	90	10	90	60	80	10	90	0	20	0	0	50	70	20	70	10	20	0	0	Morningglory plant response rating [6, 9]: 90; Morningglory plant response rating [6, 10]: 90; Plant response rating, Morningglory [6, 11]: 0; Plant response rating, Morningglory [6, 12]: 0; Velvetleaf plant response rating [7, 9]: 30; Velvetleaf plant response rating [7, 10]: 70; Plant response rating, Velvetleaf [7, 11]: 0; Plant response rating, Velvetleaf [7, 12]: 0; Barnyardgrass plant response rating [8, 9]: 10; Barnyardgrass plant response rating [8, 10]: 30; Plant response rating, Barnyardgrass [8, 13]: 0; Plant response rating, Barnyardgrass [8, 12]: 20
Cc1nn(-c2ccc(C(F)(F)F)cc2)nc1Oc1ccc(Cl)c(C(F)(F)F)c1 [Compound 103]	50	70	10	30	0	30	0	10	0	0	0	0	0	20	0	0	0	0	0	0	Morningglory plant response rating [6, 9]: 0; Morningglory plant response rating [6, 10]: 0; Plant response rating, Morningglory [6, 11]: 0; Plant response rating, Morningglory [6, 12]: 0; Velvetleaf plant response rating [7, 9]: 0; Velvetleaf plant response rating [7, 10]: 10; Plant response rating, Velvetleaf [7, 11]: 0; Plant response rating, Velvetleaf [7, 12]: 0; Barnyardgrass plant response rating [8, 9]: 0; Barnyardgrass plant response rating [8, 10]: 0; Plant response rating, Barnyardgrass [8, 13]: 0; Plant response rating, Barnyardgrass [8, 12]: 0
Cc1nn(-c2ccc(F)cc2)nc1Oc1ccc(Cl)c(C(F)(F)F)c1 [Compound 99]	70	100	20	60	30	70	30	60	0	20	0	0	20	80	10	80	20	20	0	0	Morningglory plant response rating [6, 9]: 60; Morningglory plant response rating [6, 10]: 80; Plant response rating, Morningglory [6, 11]: 0; Plant response rating, Morningglory [6, 12]: 0; Velvetleaf plant response rating [7, 9]: 10; Velvetleaf plant response rating [7, 10]: 60; Plant response rating, Velvetleaf [7, 11]: 0; Plant response rating, Velvetleaf [7, 12]: 20; Barnyardgrass plant response rating [8, 9]: 10; Barnyardgrass plant response rating [8, 10]: 30; Plant response rating, Barnyardgrass [8, 13]: 0; Plant response rating, Barnyardgrass [8, 12]: 10
